Data taken from article PMC10304291, “THC-Reduced Cannabis sativa L.—How Does the Solvent Determine the Bioavailability of Cannabinoids Given Orally?” (Nutrients, 2023).
Like-named read-outs stand apart in the source and are kept apart here.

How the values were obtained:
[1] = 24 volunteers, 0.078 mg/kg CBD + […] THC, cited from earlier work
[2] = cited from earlier work
[3] = Whole-blood pharmacokinetics of CBD and THC after single oral dose of Cannabis sativa extract; details: for CBD levels in whole blood: range of levels; for concentration at 0.5 h / concentration at 1 h / concentration at 2 h / concentration at 4 h / concentration at 6 h / concentration at 24 h / AUC(0-t) / Cmax / MRT / Tmax / CL / Vd: whole blood; for concentration at 0.5 h / concentration at 1 h / concentration at 2 h / concentration at 4 h / concentration at 6 h / concentration at 24 h: oral; for AUC(0-t): AUC0–24, whole blood
[4] = rats; oral CBD 120 mg/kg in Cremophor; cited from earlier work
[5] = 12 healthy volunteers; chocolate cookies with 0.57 mg/kg CBD + 0.28 mg/kg THC; after 1.5–3 h; cited from earlier work
[6] = Brain pharmacokinetics of CBD and THC after single oral dose of Cannabis sativa extract; details: for mean concentration over time: Table 7; for AUC(0-t): AUC0–24, brain
[7] = mice; oral CBD 120 mg/kg in Cremophor; cited from earlier work
[8] = 1 h after gelatin capsules with extract
[9] = male, Wistar, rat, 30 mg/kg, Mean Concentration ± SD, blood, Rapae oleum, single oral dose of extract 30 mg/kg
[10] = male, Wistar, rat, 30 mg/kg, Mean Concentration, blood, Cremophor, single oral dose of extract 30 mg/kg
[11] = male, Wistar, rat, 30 mg/kg, mean concentration over time, Blood/Cremophor, single oral dose of extract 30 mg/kg, Table 7
[12] = male, Wistar, rat, 30 mg/kg, mean concentration over time, Blood/Rapae Oleum, single oral dose of extract 30 mg/kg, Table 7
[13] = male, Wistar, rat, po, 30 mg/kg, Cremophor, single oral dose of extract 30 mg/kg
[14] = male, Wistar, rat, po, 30 mg/kg, Rapae oleum, single oral dose of extract 30 mg/kg
[15] = Cremophor, single oral dose of extract 30 mg/kg
[16] = Rapae oleum, single oral dose of extract 30 mg/kg
[17] = male, Wistar, rat, brain, po, 30 mg/kg, Cremophor, single oral dose of extract 30 mg/kg
[18] = male, Wistar, rat, brain, po, 30 mg/kg, Rapae oleum, single oral dose of extract 30 mg/kg

C=C(C)[C@@H]1CCC(C)=C[C@H]1c1c(O)cc(CCCCC)cc1O [CBD, cannabidiol]
levels in whole blood (average) [1, 8]: 0.93 ng/mL | levels in whole blood (range) [1, 8]: 0.3 to 2.6 ng/mL | time detectable after administration ([1]; gelatin capsules with extract): 3 to 4 h | peak concentration in the blood ([2]; oral CBD 120 mg/kg in Cremophor, at 2 h): 2 µg/mL | peak concentration in the blood ([2]; oral CBD 120 mg/kg in Solutol, at 6 h): 3.2 µg/mL | CBD levels in whole blood ([3]; Cremophor): 1.43 to 231.43 ng/mL | concentration at 0.5 h [3, 9]: 26.9 ± 21.5 ng/g | concentration at 1 h [3, 9]: 107 ± 51 ng/g | concentration at 2 h [3, 9]: 334 ± 139 ng/g | concentration at 4 h [3, 9]: 154 ± 146 ng/g | concentration at 6 h [3, 9]: 37.6 ± 11.3 ng/g | concentration at 24 h [3, 9]: 2.76 ± 2.12 ng/g | concentration at 0.5 h [3, 10]: 120 ± 93.5 ng/g | concentration at 1 h [3, 10]: 109 ± 35.4 ng/g | concentration at 2 h [3, 10]: 46.5 ± 15.7 ng/g | concentration at 4 h [3, 10]: 35.1 ± 4.71 ng/g | concentration at 6 h [3, 10]: 31.4 ± 9.28 ng/g | concentration at 24 h [3, 10]: 12.3 ± 18 ng/g | concentration at 0.5 h [3, 11]: 120 ng/mL | concentration at 1 h [3, 11]: 109 ng/mL | concentration at 2 h [3, 11]: 46.5 ng/mL | concentration at 4 h [3, 11]: 35.1 ng/mL | concentration at 6 h [3, 11]: 31.4 ng/mL | concentration at 24 h [3, 11]: 12.3 ng/mL | concentration at 0.5 h [3, 12]: 26.9 ng/mL | concentration at 1 h [3, 12]: 107 ng/mL | concentration at 2 h [3, 12]: 334 ng/mL | concentration at 4 h [3, 12]: 154 ng/mL | concentration at 6 h [3, 12]: 37.6 ng/mL | concentration at 24 h [3, 12]: 2.76 ng/mL | AUC(0-t) [3, 13]: 988 ng·h/mL | AUC(0-t) [3, 14]: 1290 ng·h/mL | Cmax [3, 13]: 120 ng/mL | Cmax [3, 14]: 334 ng/mL | MRT [3, 13]: 12 h | MRT [3, 14]: 4.03 h | Tmax ([3]; male, Wistar, rat, po, 30 mg/kg, Tmax, Rapae oleum, single oral dose of extract 30 mg/kg): 2 h | CBD levels in whole blood ([3]; oil (Rapae oleum)): 1.06 to 588.03 ng/mL | time concentrations were detectable after administration ([3]; single oral dose of extract 30 mg/kg): up to 24 h | CL [3, 15]: 7.75 L/h | Tmax [3, 15]: 0.5 h | Vd [3, 15]: 69.66 L | CL [3, 16]: 5.85 L/h | Vd [3, 16]: 28.29 L | brain peak CBD concentration [4]: 8.6 µg/g | peak whole-blood concentration [4]: ~2 µg/mL | whole-blood concentration [5]: about 5 ng/mL | mean concentration over time ([6]; Brain/Cremophor, 0.5 h, single oral dose of extract 30 mg/kg): 274.994 | mean concentration over time ([6]; Brain/Cremophor, 1 h, single oral dose of extract 30 mg/kg): 213.491 | mean concentration over time ([6]; Brain/Cremophor, 2 h, single oral dose of extract 30 mg/kg): 81.1135 | mean concentration over time ([6]; Brain/Cremophor, 4 h, single oral dose of extract 30 mg/kg): 52.1185 | mean concentration over time ([6]; Brain/Cremophor, 6 h, single oral dose of extract 30 mg/kg): 57.7145 | mean concentration over time ([6]; Brain/Cremophor, 24 h, single oral dose of extract 30 mg/kg): 3.604 | mean concentration over time ([6]; Brain/Rapae oleum, 0.5 h, single oral dose of extract 30 mg/kg): 23.327 | mean concentration over time ([6]; Brain/Rapae oleum, 1 h, single oral dose of extract 30 mg/kg): 65.391 | mean concentration over time ([6]; Brain/Rapae oleum, 2 h, single oral dose of extract 30 mg/kg): 301.388 | mean concentration over time ([6]; Brain/Rapae oleum, 4 h, single oral dose of extract 30 mg/kg): 263.466 | mean concentration over time ([6]; Brain/Rapae oleum, 6 h, single oral dose of extract 30 mg/kg): 59.650 | mean concentration over time ([6]; Brain/Rapae oleum, 24 h, single oral dose of extract 30 mg/kg): 9.797 | Kp ([6]; male, Wistar, rat, brain / whole blood, po, 30 mg/kg, AUCbrain:AUC whole blood (AUC0–24 ratio), Cremophor, single oral dose of extract 30 mg/kg): 0.95 | Kp ([6]; male, Wistar, rat, brain / whole blood, po, 30 mg/kg, AUCbrain:AUC whole blood (AUC0–24 ratio), Rapae oleum, single oral dose of extract 30 mg/kg): 1.54 | concentration at 0.5 h ([6]; male, Wistar, rat, brain, oral, 30 mg/kg, Mean Concentration, Cremophor, 0.5 h, single oral dose of extract 30 mg/kg): 275 ± 104 ng/g | concentration at 1 h ([6]; male, Wistar, rat, brain, oral, 30 mg/kg, Mean Concentration, Cremophor, 1 h, single oral dose of extract 30 mg/kg): 213 ± 66.1 ng/g | concentration at 2 h ([6]; male, Wistar, rat, brain, oral, 30 mg/kg, Mean Concentration, Cremophor, 2 h, single oral dose of extract 30 mg/kg): 81.1 ± 23.4 ng/g | concentration at 4 h ([6]; male, Wistar, rat, brain, oral, 30 mg/kg, Mean Concentration, Cremophor, 4 h, single oral dose of extract 30 mg/kg): 52.1 ± 12.2 ng/g | concentration at 6 h ([6]; male, Wistar, rat, brain, oral, 30 mg/kg, Mean Concentration, Cremophor, 6 h, single oral dose of extract 30 mg/kg): 57.7 ± 25.9 ng/g | concentration at 24 h ([6]; male, Wistar, rat, brain, oral, 30 mg/kg, Mean Concentration, Cremophor, 24 h, single oral dose of extract 30 mg/kg): 3.6 ± 0.493 ng/g | Tmax ([6]; male, Wistar, rat, brain, po, 30 mg/kg): 2 h | AUC(0-t) [6, 17]: 943 ng·h/mL | AUC(0-t) [6, 18]: 1990 ng·h/mL | Cmax [6, 17]: 275 ng/g | Cmax [6, 18]: 301 ng/g | MRT [6, 17]: 6.19 h | MRT [6, 18]: 7.76 h | Kp ([6]; male, Wistar, rat, brain/whole blood, oral, 30 mg/kg, brain/whole-blood ratio, Cremophor, present study): 2.29 | brain peak CBD concentration [7]: 1.3 µg/g | peak whole-blood concentration [7]: ~2 µg/mL
